Test results as given in PMC6152727, “Potential of Icariin Metabolites from Epimedium koreanum Nakai as Antidiabetic Therapeutic Agents” (Molecules : A Journal of Synthetic Chemistry and Natural …, 2017).

Assays:
Type in all cases: biochemical
[1] = target: T1, human recombinant PTP1B (Homo sapiens, UniProt P18031); assay: PTP1B activity assay (pNPP substrate); conditions: mean ± SEM of triplicate experiments
T1 construct: purchased Biomol International LP (Plymouth Meeting, PA, USA)
T1 sequence (P18031 1-435): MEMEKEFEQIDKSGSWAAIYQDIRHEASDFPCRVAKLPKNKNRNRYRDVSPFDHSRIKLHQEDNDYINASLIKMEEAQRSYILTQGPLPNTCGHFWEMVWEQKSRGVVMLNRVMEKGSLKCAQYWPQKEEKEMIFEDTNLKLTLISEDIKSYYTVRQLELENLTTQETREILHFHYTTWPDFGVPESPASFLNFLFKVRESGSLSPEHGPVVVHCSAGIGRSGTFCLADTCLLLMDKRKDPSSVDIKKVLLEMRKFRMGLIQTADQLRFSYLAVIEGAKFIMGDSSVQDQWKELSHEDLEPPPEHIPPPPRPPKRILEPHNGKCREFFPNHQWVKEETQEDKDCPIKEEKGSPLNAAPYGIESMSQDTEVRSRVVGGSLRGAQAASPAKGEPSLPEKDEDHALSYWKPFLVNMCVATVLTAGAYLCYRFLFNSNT
Method: The abilities of the aerial parts of E. koreanum and their constituents to inhibit human recombinant PTP1B activity were evaluated using pNPP as a substrate. […] After incubation at 37 °C for 20 min in the dark, the reaction was terminated by addition of 10 M NaOH. The amount of p-nitrophenylate produced by enzymatic dephosphorylation of pNPP was determined by measuring the absorbance at 405 nm using a microplate spectrophotometer (Molecular Devices). Non-enzymatic dephosphorylation of pNPP was corrected by measuring the increase in absorbance at 405 nm obtained in the absence of PTP1B. […] The percent inhibition was calculated as {(AC − AS)/AC} × 100, where AC is the absorbance of the control, and AS is the absorbance of the sample. The IC50 is expressed as the mean ± SEM of triplicate experiments.

[2] = target: yeast α-glucosidase; assay: α-Glucosidase activity assay (pNPG substrate); conditions: for IC50: mean ± SEM of triplicate experiments, final concentration 20 to 300 μM
Method: α-Glucosidase enzymatic activity was assayed spectrophotometrically as described previously. Briefly, 60 μL of reaction mixture containing 20 μL of 100 mM phosphate buffer (pH 6.8), 20 μL of 2.5 mM pNPG, and 20 μL of sample (final concentration ranging from 20 to 300 μM, dissolved in 10% DMSO) was added to each well. After incubation at 37 °C for 5 min in the dark, 20 μL of yeast α-glucosidase (0.2 U/mL) in 10 mM phosphate buffer (pH 6.8) was added. The plate was then incubated at 37 °C for 15 min in the dark, after which the reaction was stopped by the addition of 80 μL of 0.2 M sodium carbonate solution. The absorbance was immediately recorded at 405 nm using a microplate spectrophotometer (Molecular Devices). The control consisted of the same reaction mixture but with the sample solution replaced by an equivalent volume of phosphate buffer. […] The inhibition percentage (%) was obtained using the same equation as in the PTP1B enzymatic assay.

[3] = target: T1, human recombinant PTP1B; assay: Enzyme kinetics analysis of PTP1B (Lineweaver–Burk and Dixon plots); conditions: for PTP1B Inhibition Type: determined by the Lineweaver–Burk plot
Method: The inhibition type and inhibition constant (Ki) of the two compounds were determined using Lineweaver–Burk and Dixon plots. Each line of the inhibitors penetrate the same point at the x-intercept, indicating noncompetitive-type inhibition, and the x-axis represent-Kiwhen 1/V = 0. […] The Dixon plot is an established method for determining the enzyme inhibition type and the Ki value for an enzyme-inhibitor complex, where the value of the x-axis indicates Ki.
In order to determine the inhibition mechanism, two complementary kinetics methods were used: Lineweaver–Burk and Dixon plots. The level of enzymatic inhibition at various concentrations of test sample was evaluated by monitoring the effect of different substrate concentrations in Dixon plots (single reciprocal plots). Dixon plots for PTP1B inhibition were obtained in the presence of different concentrations of pNPP. Using Lineweaver–Burk plots (double reciprocal plots), the inhibition modes of the compounds were determined at various concentrations of pNPP with different concentrations of compounds. The enzymatic procedures were the same as for the PTP1B assay methods. The types of inhibition were investigated by interpreting the Dixon plots, in which the value of the x-axis indicates Ki.

| Compound | IC50 [1] [µM] | IC50 [2] [µM] | Ki ([3]; determined by the Dixon plot) [µM] | α-glucosidase inhibition (in words) ([2]; at any of the tested concentrations) | PTP1B Inhibition Type [3] |
| --- | --- | --- | --- | --- | --- |
| COc1ccc(-c2oc3c(CC=C(C)C)c(O[C@@H]4O[C@H](CO)[C@@H](O)[C@H](O)[C@H]4O)cc(O)c3c(=O)c2O[C@@H]2O[C@@H](C)[C@H](O)[C@@H](O)[C@H]2O[C@@H]2OC[C@@H](O)[C@H](O)[C@H]2O)cc1 [Epimedin B, epimedin B] | > 300 | 452 ± 5.36 |  |  |  |
| COc1ccc(-c2oc3c(CC=C(C)C)c(O[C@@H]4O[C@H](CO)[C@@H](O)[C@H](O)[C@H]4O)cc(O)c3c(=O)c2O[C@@H]2O[C@@H](C)[C@H](O)[C@@H](O)[C@H]2O)cc1 [Icariin, icariin] | > 300 |  |  | did not inhibit α-glucosidase activity at any of the tested concentrations |  |
| icariside II |  | 106.6 ± 0.44 |  |  | Non-competitive |

Now from value to compound, other results behind:

| IC50 [1] [µM] | IC50 [2] [µM] | Ki ([3]; determined by the Dixon plot) [µM] | Compound | α-glucosidase inhibition (in words) ([2]; at any of the tested concentrations) | PTP1B Inhibition Type [3] |
| --- | --- | --- | --- | --- | --- |
| > 300 | 444.1 ± 3.8 |  | COc1ccc(-c2oc3c(CC=C(C)C)c(OC4OC(CO)C(O)C(O)C4O)cc(O)c3c(=O)c2OC2OC(C)C(O)C(O)C2OC2OC(CO)C(O)C(O)C2O)cc1 (centres unmarked) [Epimedin A, epimedin A] |  |  |
| > 300 | 403.9 ± 1.53 |  | COc1ccc(-c2oc3c(CC=C(C)C)c(O[C@@H]4O[C@H](CO)[C@@H](O)[C@H](O)[C@H]4O)cc(O)c3c(=O)c2O[C@@H]2O[C@@H](C)[C@H](O)[C@@H](O)[C@H]2O[C@@H]2O[C@@H](C)[C@H](O)[C@@H](O)[C@H]2O)cc1 [Epimedin C, epimedin C] |  |  |
| 11.6 ± 1.39 | 74.42 ± 0.01 | 11.4 | COc1ccc(-c2oc3c(CC=C(C)C)c(O)cc(O)c3c(=O)c2O)cc1 [Icaritin, icaritin] |  | Non-competitive |
